Experimental data from patent US7332476B2, “Pyridyl substituted ketolide antibiotics” (Novartis AG, priority 2003, dated 2008).
In brackets after ≈: the same amount, converted by molar mass.

Legend:
Experiment in all cases: MIC, broth microdilution (NCCLS)
[1] = system: S. pneumoniae Stpn_Erm 6849; format: cell-based, Streptococcus pneumoniae; conditions: Table 7, Strain ID I (Table 6): S. pneumoniae Stpn_Erm 6849
Procedure: (§1) Strains. The bacterial isolates listed in Table 4 were cultivated from −70° C. frozen stocks by two consecutive overnight passages (P1, P2) at 35° C. on 5% blood agar (Remel, Lenexa, Kans.). Chocolate agar (Remel) is used for Haemophilus influenzae. H. influenzae and Streptococcus pneumoniae are incubated in 5-10% CO2
(§2) Drug Stock Preparation. To determine the amount of solvent to be used to give the desired final concentration, the formula “weight obtained in mg/final concentration in mg/ml” will be used. It will give the amount of solvent in ml needed to be added to give the desired concentration. For example, if 2.5 mg/ml is the desired concentration and the weight of compound is 13.7 mg, then the amount of solvent to be added is […]. Methanol is used as the solvent to dissolve the test compounds. Further dilution of stock is done in sterile, deionized water. Drug stocks are kept frozen at −70° C., protected from light.
(§3) Susceptibility Testing. MICs are determined by the broth microdilution method in accordance with the NCCLS guidelines. In brief, organism suspensions are adjusted to a 0.5 McFarland standard to yield a final inoculum between 3×10^5 and 7×10^5 CFU/ml. Drug dilutions and inocula are made in sterile, cation adjusted Mueller-Hinton Broth (CAMHB) (Remel) for all but S. pneumoniae [CAMHB with 2-5% lysed horse blood (Remel)] and H. influenzae [Haemophilus Test Medium (Remel)]. An inoculum volume of 100 μl is added to wells containing 100 μl of broth with 2-fold serial dilutions of drug. All inoculated microdilution trays are incubated in ambient air at 35° C. for 18-24 hours, except for S. pneumoniae, and H. influenzae (both at 5-10% CO2).
(§4) Following appropriate incubation, the MIC is determined and the MIC is defined as the lowest concentration of the drug that prevented visible growth.

[2] = system: Streptococcus pyogenes Stpy_8668; format: cell-based; conditions: Table 7, Strain ID E (Table 6): S. pyogenes Stpy_8668
Procedure: as §1, §2, §3, §4
as §1, with “8” for “4”
(§5) Following appropriate incubation, the MIC is determined and the MIC is defined as the lowest concentration of the drug that prevented visible growth. […] Antibacterial activity of representative compounds of the invention were compared against telitromycin.

[3] = system: Streptococcus pneumoniae Stpn_Mef 5654; format: cell-based; conditions: Table 7, Strain ID K (Table 6): S. pneumoniae Stpn_Mef 5654; in µg/mL (unit assumed)
Procedure: as §1, §2, §3, §4
as §1, with “8” for “4”
as §5

[4] = system: Staphylococcus aureus Stau_29213; format: cell-based; conditions: Table 7, Strain ID A (Table 6): S. aureus Stau_29213; in µg/mL (unit assumed)
Procedure: as §1, §2, §3, §4
as §1, with “8” for “4”
as §5

[5] = system: Streptococcus pneumoniae Stpn_Mef S 3427; format: cell-based; conditions: Table 7, Strain ID L (Table 6): S. pneumoniae Stpn_Mef S 3427
Procedure: as §1, §2, §3, §4
as §1, with “8” for “4”
as §5

[6] = system: Enterococcus faecalis Enfa_29212; format: cell-based; conditions: Table 7, Strain ID D (Table 6): E. faecalis Enfa_29212
Procedure: as §1, §2, §3, §4
as §1, with “8” for “4”
as §5

[7] = system: Staphylococcus epidermidis Step_f50654; format: cell-based; conditions: Table 7, Strain ID C (Table 6): S. epidermidis Step_f50654; in µg/mL (unit assumed)
Procedure: as §1, §2, §3, §4
as §1, with “8” for “4”
as §5

[8] = system: Streptococcus pneumoniae Stpn_Erm S 4297; format: cell-based; conditions: Table 7, Strain ID J (Table 6): S. pneumoniae Stpn_Erm S 4297
Procedure: as §1, §2, §3, §4
as §1, with “8” for “4”
as §5

[9] = system: Staphylococcus epidermidis Step_14990; format: cell-based; conditions: Table 7, Strain ID B (Table 6): S. epidermidis Step_14990; in µg/mL (unit assumed)
Procedure: as §1, §2, §3, §4
as §1, with “8” for “4”
as §5

[10] = system: Haemophilus influenzae Hain_49247; format: cell-based; conditions: Table 7, Strain ID M (Table 6): H. influenzae Hain_49247; unit assumed
Procedure: as §1, §2, §3, §4
as §1, with “8” for “4”
as §5

[11] = system: Streptococcus pneumoniae Stpn_49619; format: cell-based; conditions: Table 7, Strain ID F (Table 6): S. pneumoniae Stpn_49619
Procedure: as §1, §2, §3, §4
as §1, with “8” for “4”
as §5

[12] = system: Streptococcus pneumoniae Stpn_297-749; format: cell-based; conditions: Table 7, Strain ID G (Table 6): S. pneumoniae Stpn_297-749
Procedure: as §1, §2, §3, §4
as §1, with “8” for “4”
as §5

[13] = system: Streptococcus pneumoniae Stpn_280-962; format: cell-based; conditions: Table 7, Strain ID H (Table 6): S. pneumoniae Stpn_280-962
Procedure: as §1, §2, §3, §4
as §1, with “8” for “4”
as §5

Row | SMILES | MIC [1] | MIC [2] | MIC [3] | MIC [4] | MIC [5] | MIC ([6]; in µg/mL (unit assumed)) | MIC [7] | MIC [8] | MIC [9] | MIC [10] | MIC ([1]; unit assumed) | MIC [11] | MIC [12] | MIC [13] | MIC ([2]; unit assumed) | MIC ([5]; in µg/mL (unit assumed)) | MIC ([8]; unit assumed) | MIC [6] | MIC ([11]; unit assumed) | MIC ([13]; unit assumed)
1 | CC[C@H]1OC(=O)[C@@](C)(F)C(=O)[C@H](C)[C@@H](OC2O[C@H](C)C[C@H](N(C)C)[C@H]2O)[C@@](C)(OC)C[C@@H](C)C(=O)[C@H](C)[C@H]2N(CCCCc3ccc4ccccc4n3)C(=O)O[C@]12CC (stereo partly drawn) [65 (1), (3aS,4R,7S,9R,10R,11S,13R,15R,15aR)-3a,4-DIETHYL-7-FLUORO-11-METHOXY-7,9,11,13,15-PENTAMETHYL-2,6,8,14-TETRAOXO-1-(4-QUINOLIN-2-YLBUTYL)TETRADECAHYDRO-2H-OXACYCLOTETRADECINO[4,3-D][1,3]OXAZOL-10-YL-3,4,6-TRIDEOXY-3-(DIMETHYLAMINO)-D-XYLO-HEXOPYRANOSIDE] | =0.05 | =0.05 | 0.2 | 0.2 | =0.05 | 0.1 | 0.2 | =0.05 | 0.2 | 3.13 µg/mL (≈ 3.78 µM) | – | – | – | – | – | – | – | – | – | –
2 | C/C=C/[C@]12OC(=O)N(CCCCn3cnc(-c4cccnc4)c3)[C@@H]1[C@@H](C)C(=O)[C@H](C)C[C@](C)(OC)[C@H](OC1O[C@H](C)C[C@H](N(C)C)[C@H]1O)[C@@H](C)C(=O)[C@@H](C)C(=O)O[C@@H]2CC (stereo partly drawn) [65 (2), (3aS,4R,7R,9R,10R,11S,13R,15R,15aR)-4-ETHYL-11-METHOXY-7,9,11,13,15-PENTAMETHYL-2,6,8,14-TETRAOXO-3a-[(1E)-PROP-1-ENYL]-1-[4-(4-PYRIDIN-3-YL-1H-IMIDAZOL-1-YL)BUTYL]TETRADECAHYDRO-1H-OXACYCLOTETRADECINO[4,3-D][1,3]OXAZOL-10-YL 3,4,6-TRIDEOXY-3-(DIMETHYLAMINO)-D-XYLO-HEXOPYRANOSIDE] | – | – | 0.78 | 3.13 | – | 0.78 | 3.13 | – | 3.13 | 25 µg/mL (≈ 29.8 µM) | 0.78 µg/mL (≈ 0.931 µM) | =0.05 | =0.05 | =0.05 | 0.2 µg/mL (≈ 0.239 µM) | 0.2 | 0.4 µg/mL (≈ 0.477 µM) | – | – | –
3 | CCC1OC(=O)C(C)C(=O)C(C)C(OC2OC(C)CC(N(C)C)C2O)C(C)(OC)CC(C)C(=O)C(C)C2C1OC(=O)N2CCCCn1ccc2ncccc21 (stereo not drawn) [Compound 20m] | – | =0.05 | 0.2 | 0.2 | =0.05 | – | 0.2 | =0.05 | 0.1 | 1.56 µg/mL (≈ 2.02 µM) | 0.2 µg/mL (≈ 0.259 µM) | =0.05 | =0.05 | =0.05 | – | – | – | =0.05 | – | –
4 | CCC1OC(=O)C(C)C(=O)C(C)C(OC2OC(C)CC(N(C)C)C2O)C(C)(OC)CC(C)C(=O)C(C)C2C1OC(=O)N2CCCCc1cnc2ccccc2c1 (stereo not drawn) [Compound 20n] | – | =0.05 | 0.2 | 0.4 | – | 0.1 | 0.4 | – | 0.2 | 6.25 µg/mL (≈ 7.99 µM) | 0.4 µg/mL (≈ 0.512 µM) | =0.05 | =0.05 | =0.05 | – | 0.1 | 0.1 µg/mL (≈ 0.128 µM) | – | – | –
5 | CCC1OC(=O)C(C)C(=O)C(C)C(OC2OC(C)CC(N(C)C)C2O)C(C)(OC)CC(C)C(=O)C(C)C2C1OC(=O)N2CCCCc1cc(C)nc2ccccc12 (stereo not drawn) [Compound 20o] | – | =0.05 | 0.2 | 0.2 | – | 0.1 | 0.2 | – | 0.2 | 3.13 µg/mL (≈ 3.93 µM) | 1.56 µg/mL (≈ 1.96 µM) | =0.05 | =0.05 | =0.05 | – | 0.1 | 0.1 µg/mL (≈ 0.126 µM) | – | – | –
6 | CCC1OC(=O)C(C)C(=O)C(C)C(OC2OC(C)CC(N(C)C)C2O)C(C)(OC)CC(C)C(=O)C(C)C2C1OC(=O)N2CCCCc1cc(C(F)(F)F)nc2ccccc12 (stereo not drawn) [Compound 20p] | – | – | 0.78 | 0.4 | – | 0.2 | 0.4 | – | 0.2 | 6.25 µg/mL (≈ 7.35 µM) | 6.25 µg/mL (≈ 7.35 µM) | – | =0.05 | – | 0.1 µg/mL (≈ 0.118 µM) | 0.2 | 0.78 µg/mL (≈ 0.918 µM) | – | 0.1 µg/mL (≈ 0.118 µM) | 0.1 µg/mL (≈ 0.118 µM)
7 | CC[C@H]1OC(=O)[C@H](C)C(=O)[C@H](C)[C@@H](OC2O[C@H](C)C[C@H](N(C)C)[C@H]2O)[C@@](C)(OC)C[C@@H](C)C(=O)[C@H](C)[C@H]2N(CCCCn3cc(-c4cccnc4)nc3C)C(=O)O[C@]12CC (stereo partly drawn) [Example 20, (3aS,4R,7R,9R,10R,11S,13R,15R,15aR)-3a,4-diethyl-11-methoxy-7,9,11,13,15-pentamethyl-1-[4-(2-methyl-4-pyridin-3-yl-1H-imidazol-1-yl)butyl]-2,6,8,14-tetraoxotetradecahydro-2H-oxacyclotetradecino[4,3-d][1,3]oxazol-10-yl-3,4,6-trideoxy-3-(dimethylamino)-D-xylo-hexopyranoside] | =0.5 | =0.05 | – | – | =0.05 | – | – | =0.05 | – | – | – | =0.05 | =0.05 | =0.05 | – | – | – | – | – | –
8 | CC[C@H]1OC(=O)[C@H](C)C(=O)[C@H](C)[C@@H](OC2O[C@H](C)C[C@H](N(C)C)[C@H]2O)[C@@](C)(OC)C[C@@H](C)C(=O)[C@H](C)[C@H]2N(CCCCn3cnc(-c4ccc(F)nc4)c3)C(=O)O[C@]12CC (stereo partly drawn) [Example 33, (3aS,4R,7R,9R,10R,11S,13R,15R,15aR)-3a,4-DIETHYL-1-14-[4-(6-FLUOROPYRIDIN-3-YL)-1H-IMIDAZOL-1-YL]BUTYL}-11-METHOXY-7,9,11,13,15-PENTAMETHYL-2,6,8,14-TETRAOXOTETRADECAHYDRO-1H-OXACYCLOTETRADECINO[4,3-D][1,3]OXAZOL-10-YL-3,4,6-TRIDEOXY-3-(DIMETHYLAMINO)-D-XYLO-HEXOPYRANOSIDE] | =0.05 | =0.05 | – | – | – | – | – | – | – | – | – | – | =0.05 | =0.05 | – | – | – | – | – | –
9 | CC[C@H]1OC(=O)[C@H](C)C(=O)[C@H](C)[C@@H](OC2O[C@H](C)C[C@H](N(C)C)[C@H]2O)[C@@](C)(OC)C[C@@H](C)C(=O)[C@H](C)[C@H]2N(CCCCc3ncc(-c4cccc(N)c4)s3)C(=O)O[C@]12CC (stereo partly drawn) [Example 34, (3aS,4R,7R,9R,10R,11S,13R,15R,15aR)-1-{4-[5-(3-AMINOPHENYL)-1,3-THIAZOL-2-YL]BUTYL}-3a,4-DIETHYL-11-METHOXY-7,9,11,13,15-PENTAMETHYL-2,6,8,14-TETRAOXOTETRADECAHYDRO-1H-OXACYCLOTETRADECINO[4,3-D][1,3]OXAZOL-10-YL 3,4,6-TRIDEOXY-3-(DIMETHYLAMINO)-D-XYLO-HEXOPYRANOSIDE] | =0.05 | =0.05 | – | – | – | – | – | – | – | – | – | – | =0.05 | =0.05 | – | – | – | – | – | –
